The values below come from patent publication US6335360B1, “Tripeptidyl peptidase inhibitors” (Institut National de la Sante et de la Recherche Medicale …, priority 1997, dated 2002).

Structures can show the parent of a compound that is named as a salt. Where two headings read alike, the source gives them in different places.

In series [1] the target is T1, membrane TPP II (tripeptidyl peptidase II) (Rattus norvegicus, UniProt Q64560).
T1 construct: evaluated by measuring the activity of membrane TPP II; from tissue; host or cells: rat cerebral cortex membranes
T1 sequence (Q64560 whole entry): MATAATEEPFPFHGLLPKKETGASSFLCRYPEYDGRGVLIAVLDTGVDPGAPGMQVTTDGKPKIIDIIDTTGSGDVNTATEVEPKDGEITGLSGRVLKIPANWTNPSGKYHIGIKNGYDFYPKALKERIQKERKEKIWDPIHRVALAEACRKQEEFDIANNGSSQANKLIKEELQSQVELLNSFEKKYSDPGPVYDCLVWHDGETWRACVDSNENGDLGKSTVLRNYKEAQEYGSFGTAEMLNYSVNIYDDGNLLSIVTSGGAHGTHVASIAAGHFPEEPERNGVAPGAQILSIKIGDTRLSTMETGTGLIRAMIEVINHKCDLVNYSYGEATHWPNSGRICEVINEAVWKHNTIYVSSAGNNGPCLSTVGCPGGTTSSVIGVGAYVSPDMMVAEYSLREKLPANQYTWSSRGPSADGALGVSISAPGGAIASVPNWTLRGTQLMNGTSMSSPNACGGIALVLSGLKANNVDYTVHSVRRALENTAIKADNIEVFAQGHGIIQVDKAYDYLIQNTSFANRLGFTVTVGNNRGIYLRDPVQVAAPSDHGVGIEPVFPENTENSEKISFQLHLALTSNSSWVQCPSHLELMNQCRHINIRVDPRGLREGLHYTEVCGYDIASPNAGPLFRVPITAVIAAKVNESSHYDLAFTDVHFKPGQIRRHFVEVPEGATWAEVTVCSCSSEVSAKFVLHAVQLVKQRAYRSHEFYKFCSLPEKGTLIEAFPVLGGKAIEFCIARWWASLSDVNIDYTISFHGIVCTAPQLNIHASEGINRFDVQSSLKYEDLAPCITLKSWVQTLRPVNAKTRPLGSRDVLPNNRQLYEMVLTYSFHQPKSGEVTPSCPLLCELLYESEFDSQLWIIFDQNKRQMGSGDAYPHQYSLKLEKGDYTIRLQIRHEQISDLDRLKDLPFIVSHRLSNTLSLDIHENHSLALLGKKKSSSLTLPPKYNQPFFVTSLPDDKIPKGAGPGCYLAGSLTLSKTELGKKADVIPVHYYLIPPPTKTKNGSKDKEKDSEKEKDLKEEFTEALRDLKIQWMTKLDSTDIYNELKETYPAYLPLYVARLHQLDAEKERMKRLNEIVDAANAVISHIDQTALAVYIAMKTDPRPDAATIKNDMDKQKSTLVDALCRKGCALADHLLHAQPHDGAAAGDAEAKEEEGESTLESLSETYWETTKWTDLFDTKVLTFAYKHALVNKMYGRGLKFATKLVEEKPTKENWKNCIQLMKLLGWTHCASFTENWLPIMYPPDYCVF
Put plainly: Inhibition of AAF-Amc hydrolysis by cerebral membranes (inhibition of TPP II). The series is classed as biochemical. The conditions noted are these: for Ki: rat cerebral cortex membranes; for activity (stated in words): stereoisomers not separated (2(R/S) mixture). As to the method:
The potency of the compounds of the invention was evaluated by measuring the activity of membrane TPP II.
Membranes of rat cerebral cortex were obtained by centrifugation (200,000×g min) of a homogenate in 10 volumes of a 50 mM potassium phosphate buffer, pH 7.4.
The centrifugation pellet was carefully washed and taken up in a buffer containing 10% glycerol and 0.1% Brij 35 to obtain a concentration of 25 mg protein/ml.
After 25 minutes of preincubation, incubation is carried out in 0.1 ml of a buffer containing 0.1% Brij 35, […], 25 μg of membrane protein and 50 μm of substrate Ala-Ala-Phe-Amc (AAF-Amc). Liberation of 7-amino4-methylcoumarin (Amc) is evaluated by fluorimetry.

Setting [2] is: Table 2, comparative compounds known in the art, substrate AAF-Amc, read-out: Ki (nM), Inhibition of AAF-Amc Hydrolysis by Cerebral Membranes, comparative compound.
The mark [3] stands for this setting: Table 1, substrate Ala-Ala-Phe-Amc, Ki calculated from 50% inhibition concentration and Km 23 μM, read-out: Ki (nM), Inhibition of AAF-Amc Hydrolysis by Cerebral Membranes.

Broadly, the Ki is a measure of affinity in units of concentration, obtained from inhibition or displacement. For `CCCCNC(=O)C1Cc2cc(O)ccc2N1C(=O)[C@@H](N)CC` (mixture of isomers) [C.C.4, 1-(2(S)-aminobutyryl)-5-hydroxyindoline-2(R/S)-carboxylic acid n-butylamide, reference compound], in series [1] (setting [2]), the Ki is 6.6 nM.
One may read the melting point as the temperature of the solid-liquid transition. On to `CC[C@H](N)C(=O)N1c2ccc(OC)c(OC)c2CC1C(=O)NCC(F)(F)F.O=C(O)C(F)(F)F` (mixture of isomers), for which the melting point was in the range of 79 to 87 °C.
Consider `CC[C@H](N)C(=O)N1c2ccc(Cl)cc2C[C@H]1C(=O)NCC(F)(F)F.O=C(O)C(F)(F)F` [Example 1, 1-(2(S)-aminobutyryl)-5-chloroindoline-2(S)-carboxylic acid (2,2,2-trifluoroethyl)amide trifluoroacetate], for which the melting point lay within 34 to 35 °C. In addition, the Ki in series [1] (setting [3]) was 0.4 nM.
On to `CC[C@H](N)C(=O)N1c2ccc(OC(F)(F)F)cc2CC1C(=O)NCC(F)(F)F` (mixture of isomers) [Example 10, 1-(2(S)-aminobutyryl)-5-trifluoromethoxyindoline-2(R/S)-carboxylic acid (2,2,2-trifluoroethyl)amide trifluoroacetate], for which, in series [1] (setting [3]), the Ki was 1.1 nM.
`CC[C@H](N)C(=O)N1c2cccc(Cl)c2CC1C(=O)NCC(F)(F)F.O=C(O)C(F)(F)F` (mixture of isomers) [Example 7, 1-(2(S)-aminobutyryl)-4-chloroindoline-2(R/S)-carboxylic acid (2,2,2-trifluoroethyl)amide trifluoroacetate] [listing 1 of 2 here] displayed a melting point of 104 to 106 °C.
Still for that read-out and setting: the result for `CC[C@H](N)C(=O)N1c2ccccc2C[C@H]1C(=O)NCC1CC1.O=C(O)C(F)(F)F` [Example 4, 1-(2(S)-aminobutyryl)-indoline-2(S)-carboxylic acid N-(cyclopropylmethyl)amide trifluoroacetate] reads 57 to 74 °C.
`CC[C@H](N)C(=O)N1c2cccc(Cl)c2CC1C(=O)NCC(F)(F)F.O=C(O)C(F)(F)F` (mixture of isomers) [Example 7, 1-(2(S)-aminobutyryl)-4-chloroindoline-2(R/S)-carboxylic acid (2,2,2-trifluoroethyl)amide trifluoroacetate] [listing 2 of 2 here]: the Ki in series [1] (setting [3]) was 0.56 nM. Moreover, in series [1], the “activity (stated in words)” value is on record as “useful activity”.
`CCCCNC(=O)C1Cc2c(ccc(Cl)c2Cl)N1C(=O)[C@@H](N)CC.O=C(O)C(F)(F)F` (mixture of isomers): the melting point was in the range of 115 to 124 °C.
Consider `CC[C@H](N)C(=O)N1c2ccc(Cl)c(Cl)c2CC1C(=O)NCC(F)(F)F.O=C(O)C(F)(F)F` (mixture of isomers), for which the melting point lay in the range of 68 to 78 °C.
In turn, `CC[C@H](N)C(=O)C1c2c(ccc3ccccc23)N[C@@H]1C(=O)NCC(F)(F)F.O=C(O)C(F)(F)F` (stereo partly shown) came in with a melting point of 64 to 78 °C.
Molecule `CC[C@H](N)C(=O)N1c2cccc(OC)c2C[C@H]1C(=O)NCC(F)(F)F.O=C(O)C(F)(F)F` returned a melting point of 125 to 149 °C.
Molecule `CC[C@H](N)C(=O)N1c2cccc(F)c2CC1C(=O)NCC(F)(F)F.O=C(O)C(F)(F)F` (mixture of isomers) [Example 8, 1-(2(S)-aminobutyryl)-4-fluoroindoline-2(R/S)-carboxylic acid (2,2,2-trifluoroethyl)amide trifluoroacetate] [listing 1 of 2 here] registered a melting point of 57.5 to 58.5 °C.
`CC[C@H](N)C(=O)N1c2ccc(OC)cc2CC1C(=O)NCC(F)(F)F.O=C(O)C(F)(F)F` (mixture of isomers) [Example 9, 1-(2(S)-aminobutyryl)-5-methoxyindoline-2(R/S)-carboxylic acid (2,2,2-trifluoroethyl)amide trifluoroacetate] came in with a melting point of 63.5 to 66 °C.
Consider `CCCCNC(=O)[C@@H]1Cc2cc(Cl)ccc2N1C(=O)[C@@H](N)CC` [C.C.1, 1-(2(S)-aminobutyryl)-5-chloroindoline-2(S)-carboxylic acid n-butylamide, reference compound], for which the Ki in series [1] (setting [2]) was determined as 2.5 nM.
Turning to `CCCCNC(=O)[C@H]1Nc2ccc3ccccc3c2C1C(=O)[C@@H](N)CC.O=C(O)C(F)(F)F` (stereo partly shown), the melting point was in the range of 76 to 88 °C.
As for `CC[C@H](N)C(=O)N1c2ccc(O)cc2CC1C(=O)NCC(F)(F)F` (mixture of isomers) [Example 6, 1-(2(S)-aminobutyryl)-5-hydroxyindoline-2(R/S)-carboxylic acid (2,2,2,-trifluoroethyl)amide trifluoroacetate], the Ki is 2.8 nM in series [1] (setting [3]) and 2.8 nM in series [1] (Table 2, compounds of the invention, substrate AAF-Amc, read-out: Ki (nM), Inhibition of AAF-Amc Hydrolysis by Cerebral Membranes, compound of the invention).
For `CC[C@H](N)C(=O)N1c2cccc(C)c2CC1C(=O)NCC(F)(F)F.O=C(O)C(F)(F)F` (mixture of isomers), the melting point lay within 109 to 122 °C.
With `CC[C@H](N)C(=O)N1c2ccccc2C[C@H]1C(=O)NCCSC.O=C(O)C(F)(F)F` [Example 3, 1-(2(S)-aminobutyryl)-indoline-2(S) carboxylic acid (2-methylthioethyl)amide trifluoroacetate], the melting point was 59.5 to 60.5 °C.
On to `CCCCNC(=O)C1Cc2cc(OC)ccc2N1C(=O)[C@@H](N)CC` (mixture of isomers) [C.C.5, 1-(2(S)-aminobutyryl)-5-methoxyindoline-2(R/S)-carboxylic acid n-butylamide, reference compound], for which the Ki in series [1] (setting [2]) came to 8 nM.
The molecule `CC[C@H](N)C(=O)N1c2ccc(Cl)cc2C[C@H]1C(=O)NCCCl.O=C(O)C(F)(F)F` [Example 2, 1-(2(S)-Aminobutyryl)-5-chloroindoline-2(S)-carboxylic acid 2-chloroethylamide trifluoroacetate] showed a melting point of 80 to 88 °C. In addition, the Ki in series [1] (setting [3]) is 1.7 nM.
For the molecule `CC[C@H](N)C(=O)N1c2ccc3c(c2CC1C(=O)NCC(F)(F)F)OCO3.O=C(O)C(F)(F)F` (mixture of isomers), the melting point was 89 to 98 °C.
Consider `CC[C@H](N)C(=O)N1c2cccc(F)c2CC1C(=O)NCC(F)(F)F.O=C(O)C(F)(F)F` (mixture of isomers) [Example 8, 1-(2(S)-aminobutyryl)-4-fluoroindoline-2(R/S)-carboxylic acid (2,2,2-trifluoroethyl)amide trifluoroacetate] [listing 2 of 2 here], for which the Ki in series [1] (setting [3]) is 0.36 nM. Also, the “activity (stated in words)” value in series [1] is on record as “useful activity”.
Consider `CC[C@H](N)C(=O)N1c2ccc(OC)cc2CC1C(=O)NCC(F)(F)F` (mixture of isomers) [Example 9, 1-(2(S)-aminobutyryl)-5-methoxyindoline-2(R/S)-carboxylic acid (2,2,2-trifluoroethyl)amide trifluoroacetate], for which, in series [1] (setting [3]), the Ki is 0.7 nM.
